“And” between values parts separate entries of the source, which are not always exact repeats. Identical values can stand only once.
Columns and labels:
[1] = target: T1, Na,K-ATPase α2β1 isoform complex (Homo sapiens, UniProt P50993); assay: biochemical; format: biochemical; conditions: Ki ± S.E. α2, Table 2; α2β1
Method: (§1) Methods for transformation, culture of P. pastoris clones, protein expression of Na,K-ATPase human isoforms (α1β1, α2β1, α3β1), membrane preparation, solubilization of membranes in DDM, and purification on BD-Talon beads have been described in detail (6-9, 11, 25). In initial experiments the three purified isoform complexes (0.3-0.5 mg/ml) were eluted from the BD-Talon beads in a solution containing Imidazole 170 mM, NaCl 100 mM; Tricine.HCl 20 mM pH 7.4; C12E8, 0.1 mg/ml; SOPS 0.07 mg/ml cholesterol 0.01 mg/ml, glycerol 25%. In later experiments the isoforms complexes were reconstituted with purified FXYD1 on the BD-Talon beads together as described in detail in (10, 11) prior to elution of α1β1FXYD1, α2β1FXYD1 and α3β1FXYD1 complexes. The proteins were stored at −80° C. Protein concentration was determined with BCA (B9643 Sigma).
(§2) Inhibition of Na,K-ATPase activity of the detergent-soluble α1β1, α2β1, and α3β1 complexes by CG's was determined as described (6) using either the αβ or αβFXYD1 complexes. […] The K0.5K was estimated by varying K concentration in a medium containing a fixed total K+choline chloride of 60 mM, and constant NaCl of 140 mM. Curves were fitted to the Hill function v=Vmax*[S]^n/([S]^n+K^n), where S is the K concentration, n is the Hill coefficient and K^n is K0.5K. For comparison of different curves the ratio v/Vmax for each curve was calculated and replotted. In experiments to assess inhibition of Na,K-ATPase activity by cardiac glycosides of the present invention, the percent inhibition VCG/V0 was calculated and Ki values were obtained by fitting the data to the function VCG/V0=Ki/([CG]+Ki)+ c. Inhibition was estimated in 3-8 separate experiments and average Ki values ±SEM were calculated. Significance of differences between Kiα1 and Kiα2 was calculated by the unpaired Student's t-test (p values). […] P values <0.05 were considered significant.

[2] = tested on: Na,K-ATPase α2β1 isoform complex; assay: biochemical; format: biochemical, human; conditions: for Selectivity ratio Ki α1/α2 ± S.E.: Kiα1β1/Kiα2β1
Method: as §1, §2

cornea of rabbits = assay: Pachymetry: corneal thickness and local toxicity after topical cardiac glycosides; format: in vivo, New Zealand white rabbits; conditions: for Corneal thickness: 0.5 mM; for Corneal thickness (in words): over 4 hours, Digoxin 1 mM, DGlyN 0.5 mM, DMe 0.5 mM, ouabain 1 mM; for Corneal thickness (in words) / Redness or local irritation in conjunctiva or cornea: after 4AP; for Redness or local irritation in conjunctiva or cornea: topical
Method: Thus, in this study, no change in corneal thickness was detected (Table 3), indicative of lack of local toxic effects. […] Similar results were obtained with CG's applied after IB-MECA.
IOP (mm Hg) of rabbits was measured using a calibrated Pneumatonometer (Model 30, Reichert technologies, FIG. 1). A local anesthetic Oxybuprocaine HCl (0.4%, 25 μl) was applied to each cornea about a minute before IOP measurements. Two baseline IOP readings were taken before topical administration of the CG (or PBS as control) and after half an hour (Zero time). […] At zero time one drop of 4AP (40 mg/ml, 30 μl) or IB-MECA (1 μM, 30 μl) was administered to both eyes of each rabbit IOP measurements were made at different times as indicated in each experiment. In the experiments for which the IOP was elevated for several hours, 4AP was added every 1.5 hours or IB-MECA every 2 hours. […] Each experiment was repeated two or three times with similar results. In all cases the figures depict the average effect on IOP (i.e for four or six eyes) compared to control ±SEM. Where error bars are not seen in the figures, the errors are smaller than the symbols used. Significance of differences from the control was calculated by the unpaired Students t-test (p values), p values <0.05 were considered significant. Corneal thickness (μm) was measured using an ultrasonic pachymeter (Sonogage pachometer, Cleveland, USA), before and during the experiment with CG and 4AP treatments. The values represent averages of three independent measurements for each eye.

[3] = target: T2, Na,K-ATPase α2β2 isoform complex (Homo sapiens, UniProt P50993); assay: biochemical
T2 construct: made in house; host or cells: Pichia pastoris SMD1165
From the text: (§3) Human β1, β2 and β3 were cloned into the pHIL-D2 expression vector containing the human α1 or α2. pHIL-D2 expression vectors containing porcine (p) α1, human (h) α1 or human α2 with Hisx10 tagged porcine β1 were previously generated (7, 9). Human β1 (Accession: P05026), human β2 (Accession: P14415) and human β3 (Accession: […]) cDNAs in pSD5 vector were a gift from K. Geering Univ. Lausanne Switzerland. The open reading frames and flanking regions of hβ1, hβ2 and hβ3 (in pSD5) were amplified separately by polymerase chain reaction (PCR) using synthetic primers containing BglII and SalI cleavage sites. Each one of the amplified fragments were digested with BglII and SalI and ligated to BglII and SalI treated plasmid pHIL-D2-(pα1/His10pβ1) to generate pHIL-D2 (pα1/His10hβ1or2or3). hβ1, hβ2 and hβ3 containing fragments were excised from pHIL-D2-(pα1/His10hβ1or2or3) and subcloned into pHIL-D2-(hα1/His10pβ1) or pHIL-D2-(hα2/His10pβ1) to produce pHIL-D2-(hα1/His10hβ1or2or3) and pHIL-D2-(hα2/His10hβ1or2or3). The newly created plasmids were analyzed for correct integration and correct sequence of the insert by restriction enzymatic digestions and sequencing. DNA of each construct was prepared in large quantities in E. coli XL-1 Blue for Pichia pastoris transformation.
as §2

[4] = tested on: Na,K-ATPase α2β2 isoform complex; assay: biochemical; parameters: species or system human; conditions: ratio of Ki, Table 6
From the text: as §3, §2

[5] = target: T3, Na,K-ATPase α2β3 isoform complex (Homo sapiens, UniProt P50993); assay: biochemical
T3 construct: made in house; host or cells: Pichia pastoris SMD1165
From the text: as §3, §2

[6] = tested on: Na,K-ATPase α2β3 isoform complex; assay: biochemical; parameters: species or system human; conditions: ratio of Ki, Table 6
From the text: as §3, §2

[7] = target: Na,K-ATPase α1β1 isoform complex (Homo sapiens, UniProt P05023); assay: biochemical; parameters: made in house; host or cells: Pichia pastoris SMD1165; conditions: Ki, nM ± SEM α1β1, Table 6
Method: as §1, §2

[8] = target: T1, Na,K-ATPase α2β1 isoform complex; assay: biochemical; format: biochemical; parameters: made in house; host or cells: Pichia pastoris SMD1165; conditions: Ki, nM ± SEM α2β1, Table 6
Method: as §1, §2

CC1CN(CC(N)=O)CCC(OC2C(O)CC(OC3C(O)CC(OC4CCC5(C)C(CCC6C5CC(O)C5(C)C(C7=CC(=O)OC7)CCC65O)C4)OC3C)OC2C)O1 (stereo not drawn) [DGlyN]
Ki [1]: 20.4 ± 1 nM | Selectivity ratio Ki α1/α2 ± S.E. [2]: 7.45±0.46 and 7.45 | Corneal thickness (cornea of rabbits; left eye, 0 h): 498 microns | Corneal thickness (cornea of rabbits; left eye, 2 h): 462 microns | Corneal thickness (cornea of rabbits; left eye, 4 h): 455 microns | Corneal thickness (cornea of rabbits; right eye, 0 h): 496 microns | Corneal thickness (cornea of rabbits; right eye, 2 h): 476 microns | Corneal thickness (cornea of rabbits; right eye, 4 h): 454 microns | Corneal thickness (in words) (cornea of rabbits): not significantly affected | Redness or local irritation in conjunctiva or cornea (cornea of rabbits): neither redness nor local irritation were observed

CC1CN(C)CCC(OC2C(O)CC(OC3C(O)CC(OC4CCC5(C)C(CCC6C5CC(O)C5(C)C(C7=CC(=O)OC7)CCC65O)C4)OC3C)OC2C)O1 (stereo not drawn) [DMe]
Ki [1]: 15.6 ± 2.3 nM | Selectivity ratio Ki α1/α2 ± S.E. [2]: 6.47±0.71 | Selectivity α1β1/α2/β1 ([2]; ratio of Ki, Table 6): 6.7 | Ki [3]: 20.4 ± 1.8 nM | Selectivity α1β1/α2/β2 [4]: 5.07 | Ki [5]: 10.8 ± 0.6 nM | Selectivity α1β1/α2β3 [6]: 9.5 | Corneal thickness (cornea of rabbits; left eye, 0 h): 465 microns | Corneal thickness (cornea of rabbits; left eye, 2 h): 440 microns | Corneal thickness (cornea of rabbits; left eye, 4 h): 453 microns | Corneal thickness (cornea of rabbits; right eye, 0 h): 507 microns | Corneal thickness (cornea of rabbits; right eye, 2 h): 476 microns | Corneal thickness (cornea of rabbits; right eye, 4 h): 498 microns | Corneal thickness (in words) (cornea of rabbits): not significantly affected | Redness or local irritation in conjunctiva or cornea (cornea of rabbits): neither redness nor local irritation were observed | Ki [7]: 103 ± 5.6 nM | Ki [8]: 15.3 ± 1.2 nM
